For 1 molecule, IC50 results are on record in paper PMC8399847, “Hybrid Quinolinyl Phosphonates as Heterocyclic Carboxylate Isosteres: Synthesis and Biological Evaluation against Topoisomerase 1B (TOP1B)” (Pharmaceuticals, 2021).

Assay type in all cases: cell-based
In data set [1] the test system is A549 (human lung adenocarcinoma cells). The data set can be described thus: CCK-8 cytotoxicity assay, A549. The settings on record: A549, 48 h, CCK-8, 50% growth inhibition, read-out: Cytotoxicity IC50 Lung A549. The procedure:
(§1) The cytotoxicity of the newly synthesized quinolinylphosphonates 7 was evaluated in vitro by testing their antiproliferative activities against several human cancer cell lines: A549 (human lung adenocarcinoma cells), SKOV3 (human ovarian carcinoma), and HEK293 (human embryonic kidney). In order to analyze the selective cytotoxicity facing exclusively cancerous cell lines, cytotoxicity against non-cancerous cell lines (MRC-5, lung fibroblast cells) was also evaluated. Cell counting kit (CCK-8) assay was employed to assess growth inhibition and, cell proliferation inhibitory activities of compounds that are listed in Table 1 as IC50 values. […] According to the data presented in Table 1, in general, all these phosphorated derivatives present higher selective cytotoxicity in the A549 cell line than in the other two cell lines, SKOV3 and HEK293, although slight differences are observed compared to human ovarian carcinoma (SKOV3).
(§2) Cells were cultured according to the supplier’s instructions, A549 (ATCC® CCL-185), SKOV3 (ATCC® HTB-77), HEK293 (CLS GmbH), MRC-5 (ATCC® CCL-171™). Cells were seeded in 96-well plates at a density of 2–2.5 × 10^3 cells per well and incubated overnight in 0.1 mL of media supplied with 10% Fetal Bovine Serum (Lonza, Basel, Switzerland) in a 5% CO2 incubator at 37 °C. On day 2, drugs (concentration between 0.5–50 μM) were added and samples were incubated for 48 h. After treatment, 10 μL of cell counting kit-8 was added to each well for an additional 2 h incubation at 37 °C. The absorbance of each well was determined by an Automatic Elisa Reader System at 450 nm wavelength. CPT was purchased from Sigma-Aldrich and used as a positive control.
(In general: Tetrazolium assays rely on reduction of a dye to a coloured formazan, in cell work by metabolically active cells.)

Data set [2] deals with SKOV3 (human ovarian carcinoma). Kind of data set: CCK-8 cytotoxicity assay, SKOV3. The settings on record: SK-OV-3, SKOV3, 48 h, CCK-8, 50% growth inhibition, read-out: Cytotoxicity IC50 Ovarian SKOV3. How it is done:
as §1, §2

Data set [3] in a line: CCK-8 cytotoxicity assay, MRC-5 non-cancerous cells. The settings on record: human, MRC-5 non-malignant lung fibroblast cells, MRC-5 non-malignant lung fibroblasts. How it is done:
as §1, §2

Usually IC50 stands for the concentration needed to halve the response being measured.

SMILES strings stand for the structures.

Turning to `CC[C@@]1(O)C(=O)OCc2c1cc1n(c2=O)Cc2cc3ccccc3nc2-1` [CPT, Camptothecin, reference compound], the 50% inhibitory concentration (IC50) in data set [1] was determined as 1 nM; in data set [2] it was 5.5 nM. Besides, in data set [3], 0.017 nM corresponded to half-maximal inhibition (IC50 at 48 h).
